This test concerns etiolated Arabidopsis seedlings. Briefly: Triple response of etiolated seedlings. The class given is in vivo, Arabidopsis thaliana.

“Also recorded” adds a separate entry of the source.

For the compound `COC(=O)Nc1nc2ccc(C(=O)c3ccccc3)cc2[nH]1` [MBZ, Mebendazole], the triple response phenotype entry (3-day-old etiolated seedlings, 10 μM MBZ) is on record as “significant triple response phenotype”. In addition, the “triple response in etr1-3” value (4-days-old etiolated etr1-3 seedlings, 2.5 μM MBZ or 10 μM ACC) was “showed the typical triple response phenotype”. For the same compound, the “triple response in ethylene insensitive mutants ein2-5 and ein3eil1” value (MBZ (2.5 μM), etiolated seedlings) is “abolished; also recorded: didn't show a triple response”. Moreover, the “concentration sufficient to induce the triple response phenotype” value (dark environment) was determined as 2.5 µM.

Source of the values: patent US20250049032A1, “ETHYLENE SIGNALING ACTIVATOR MODULATES ROOT SYSTEM ARCHITECTURE” (Salk Institute for Biological Studies, priority 2021, published 2025).
